Test system: CFBE41o- DeltaF508-CFTR YFP halide quenching kinetics
Assay: PubChem AID 651992
Settings: at 40 µM (top of the series)

With `COc1ccc(/C=C/C=C2C(=O)NC(=O)NC2=O)cc1` the YFP fluorescence ratio, lower = correction was 1.

— PubChem BioAssay AID651992 (The Scripps Research Institute Molecular Screening Center, 2013)
